These results are taken from patent US20260376299A1, “METHODS OF TREATING ACUTE MYELOID LEUKEMIA” (The Regents of the University of Colorado, A Body Corporate, priority 2022, published 2026).

The structures appear in SMILES notation.

For assay [1], the system named is p-LSCs. In words: Colony-forming unit (CFU) assay on p-LSCs. It is filed as cell-based, human. As to the method: (§1) FIG. 6C and FIG. 6D show the impact of chemotherapy agents AraC, DNR, DHODH inhibitor brequinar (BRQ), and TYMS inhibitor methotrexate (MTX) on the CFU potential of m-LSCs, p-LSCs and CD34+ HSPCs. […] IP, intraperitoneal; OG, oral gavage. […] Engraft % was determined by % of hCD45+/mCD45− cells within total viable bone marrow mononuclear cells. Each dot represents a unique mouse. For PDX of AML-13, control (n=11), VEN+AZA(n=9), CdA(n=10), VEN+AZA+CdA(n=10). For PDX of AML-07, control(n=11), VEN+AZA(n=9), CdA(n=12), VEN+AZA+CdA(n=9). Box plots represent median+interquartile range. Kruskal-Wallis test was used. ns, not significant. […] Engraft % was determined by % of hCD45+/mCD45− cells within total viable spleen mononuclear cells. hCD45+ count was determined by direct quantification of hCD45+/mCD45− cells within a set volume of spleen harvest using flow cytometry. Each dot represents a unique mouse. Control (n=6), VEN+AZA(n=6), CdA(n=6), VEN+AZA+CdA(n=6). Box plots represent median+/−interquartile. Kruskal-Wallis test was used. ns, not significant. […]
(§2) Freshly sorted m-LSCs from primary AMLs or prepared CD34+ HSPCs isolated from normal mobilized peripheral samples were plated in human methylcellulose (R&D systems) at about 100 K/ml and 2 K/ml, respectively. […] Colonies were counted 2-3 weeks after the initial plating.

Assay [2] has as its system normal CD34+ HSPCs. In words: Colony-forming unit (CFU) assay on normal CD34+ HSPCs. It is filed as cell-based, human. As to conditions: normal CD34+ HSPCs from two healthy donors. How it is done: as §1, §2
For assay [3], the system named is monocytic subpopulation of engrafted AML cells. In words: Flow analysis of residual engrafted human cells after in vivo treatment. The arrangement: species or system human AML in NSG-S mice. How it is done:
(§3) Methotrexate (MTX), brequinar (BRQ), and cladribine (CdA) were selected based on their activities in inhibiting one-carbon metabolism enzymes DHFR and TYMS, pyrimidine synthesis enzyme DHODH, and purine-based DNA/RNA synthesis, respectively. Colony-forming unit assays were performed on m-LSCs and p-LSCs isolated from Mono, Multi-MMP, and Prim specimens, along with normal CD34+ hematopoietic stem and progenitor cells (HSPC) from two healthy donors.
NSG-S (NOD.Cg-Prkdcscid Il2rgtm1Wjl Tg(CMV-IL3,CSF2,KITLG)1Eav/MloySzJ) mice (The Jackson Laboratory) were used for xenograft studies in this study. Male or female mice ranging in age from 6 to 8 weeks were started on experiment. Littermates of the same sex were randomly assigned to experimental groups. NSG-S mice were pre-conditioned 24 hours prior to transplant with 30 mg/kg busulfan (Alfa Acsar) via intraperitoneal (IP) injection. The busulfan stock was made fresh at 25 mg/ml in 100% DMSO, then the stock was diluted 1:10 in pre-warmed saline (0.9% NaCl) down to 2.5 mg/ml right before use. The diluted busulfan solution was kept in 37 °C water bath before IP injection to prevent precipitation of busulfan due to low solubility. […]
About 2-4 weeks post initial transplant, tumor burden in the bone marrow was determined to be above 5% in sentinel mice. […]

In assay [4] the test system is m-LSCs. The assay is described as follows: Colony-forming unit (CFU) assay on m-LSCs. It is filed as cell-based, human. The conditions noted are these: for potency against m-LSCs, CdA versus BRQ and MTX / selectivity for m-LSCs over p-LSCs and normal HSPCs: CFU assay; for potency against m-LSCs, CdA versus BRQ and MTX: FIG. 6D; for selectivity for m-LSCs over p-LSCs and normal HSPCs: FIG. 6C. How it is done:
FIG. 6C and FIG. 6D show the impact of chemotherapy agents AraC, DNR, DHODH inhibitor brequinar (BRQ), and TYMS inhibitor methotrexate (MTX) on the CFU potential of m-LSCs, p-LSCs and CD34+ HSPCs. […] IP, intraperitoneal; OG, oral gavage. […] Engraft % was determined by % of hCD45+/mCD45− cells within total viable bone marrow mononuclear cells. Each dot represents a unique mouse. For PDX of AML-13, control (n=11), VEN+AZA(n=9), CdA(n=10), VEN+AZA+CdA(n=10). For PDX of AML-07, control(n=11), VEN+AZA(n=9), CdA(n=12), VEN+AZA+CdA(n=9). Box plots represent median+interquartile range. Kruskal-Wallis test was used. ns, not significant. […] Engraft % was determined by % of hCD45+/mCD45− cells within total viable spleen mononuclear cells. hCD45+ count was determined by direct quantification of hCD45+/mCD45− cells within a set volume of spleen harvest using flow cytometry. Each dot represents a unique mouse. Control (n=6), VEN+AZA(n=6), CdA(n=6), VEN+AZA+CdA(n=6). Box plots represent median+/−interquartile. Kruskal-Wallis test was used. ns, not significant.
as §3
Freshly sorted m-LSCs from primary AMLs or prepared CD34+ HSPCs isolated from normal mobilized peripheral samples were plated in human methylcellulose (R&D systems) at about 100 K/ml and 2 K/ml, respectively. Small molecule inhibitors were directly added into the methylcellulose at the desired final concentration at the plating. Colonies were counted 2-3 weeks after the initial plating.

The subject of assay [5] is AML patients. As to conditions: cited from earlier work.

On to `Nc1nc(Cl)nc2c1ncn2[C@H]1C[C@@H](O)[C@@H](CO)O1` (stereo in doubt) [CdA, 5-(6-Amino-2-chloro-purin-9-yl)-2-(hydroxymethyl)oxolan-3-ol], for which the results for the “effect on CFU potential (sparing)” value in assay [1] and in assay [2] were “sparing p-LSCs” and “sparing p-LSCs as well as normal HSPC controls”, respectively. Moreover, the “clearance of the monocytic subpopulation” value in assay [3] was “targeted the monocytic counterpart”. Besides, the “potency against m-LSCs, CdA versus BRQ and MTX” value (shortened to “potency … CdA versus BRQ and MTX”) in assay [4] is “outperformed BRQ and MTX in potency against m-LSCs”. Also, in assay [4] (m-LSCs isolated from AML specimens), the “effect on CFU potential / specificity against m-LSCs” value was “remarkable specificity against m-LSCs”.

`Cc1c(-c2ccc(-c3ccccc3F)cc2)nc2ccc(F)cc2c1C(=O)O` [BRQ, 6-fluoro-2-(2′-fluoro-1,1′-biphenyl-4-yl)-3-methyl-4-quinolinecarboxylic acid]: in assay [4], the “potency … CdA versus BRQ and MTX” value is “CdA also outperformed BRQ and MTX in potency against m-LSCs”.

With `CN(Cc1cnc2nc(N)nc(N)c2n1)c1ccc(C(=O)N[C@@H](CCC(=O)O)C(=O)O)cc1` [MTX, (28)-2-[(4-{[(2,4-Diaminopteridin-6-yl)methyl](methyl)amino}benzoyl)amino]pentanedioic acid], the “potency … CdA versus BRQ and MTX” value in assay [4] is “CdA also outperformed BRQ and MTX in potency against m-LSCs”.

As to `Nc1ccn([C@@H]2O[C@H](CO)[C@@H](O)[C@@H]2O)c(=O)n1` [cytarabine, 4-amino-1-[(2R,3S,4S,5R)-3,4-dihydroxy-5-(hydroxymethyl)oxolan-2-yl]pyrimidin-2-one], in assay [4], the “selectivity for m-LSCs over p-LSCs and normal HSPCs” value is reported as “selectivity was not seen”.

On to `COc1cccc2c1C(=O)c1c(O)c3c(c(O)c1C2=O)C[C@@](O)(C(C)=O)C[C@@H]3O[C@H]1C[C@H](N)[C@H](O)[C@H](C)O1` [daunorubicin], for which the “selectivity for m-LSCs over p-LSCs and normal HSPCs” value in assay [4] was “selectivity was not seen”.

Take `CC1(C)CCC(CN2CCN(c3ccc(C(=O)NS(=O)(=O)c4ccc(NCC5CCOCC5)c([N+](=O)[O-])c4)c(Oc4cnc5[nH]ccc5c4)c3)CC2)=C(c2ccc(Cl)cc2)C1` [venetoclax, 4-(4-{[2-(4-Chlorophenyl)-4,4-dimethyl-1-cyclohexen-1-yl]methyl}-1-piperazinyl)-N-({3-nitro-4-[(tetrahydro-2H-pyran-4-ylmethyl)amino]phenyl}sulfonyl)-2-(1H-pyrrolo[2,3-b]pyridin-5-yloxy)benzamide]: in assay [5] (older previously untreated AML patients), the “responses to venetoclax in combination with backbone chemotherapy” value was 60-70%. The “CR/CRi and MRD negativity rates” value in assay [5] (venetoclax combined with chemotherapy regimens FLAG-Ida, CLIA or Clad-LDAC/AZA, recent clinical trials) was “superior CR/CRi and MRD negativity rates”.
